Among the data in PubChem BioAssay (NCI) are TGI and GI50 values, retold here.

Each structure is given as a SMILES string.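 How tested: cells in 96-well plates exposed to compound for 48 hours at five concentrations. Abbreviation: GI50, concentration required for 50% inhibition of growth. TGI: concentration producing complete growth inhibition.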

Holding throughout (test): NCI-60 cell line screen, 48 h
Assay [1] deals with RXF 393 renal.
Assay [2] deals with SF-268 CNS.
The test system of assay [3] is NCI-H460 lung.
The subject of assay [4] is NCI-H23 lung.
Assay [5] relates to M14 melanoma.
Assay [6] relates to OVCAR-8 ovarian.
For assay [7], the system named is IGROV1 ovarian.
Assay [8] deals with CCRF-CEM leukemia.
Assay [9] deals with RPMI-8226 leukemia.
Assay [10] has as its system KM12 colon.

As to `CC1=CC2C(C(C)C)CC1C1C(=O)OC(=O)C21` (stereo unspecified), the TGI in assay [1], in assay [2], in [3], in assay [4], in assay [5] and in assay [6] was over 100 µM in each case. Besides, the TGI in assay [7] was over 100 µM.

`Cc1cc2c(cc1C)[n+](=O)c(C(=O)/C=C/c1ccccc1Cl)c(C)n2[O-]`: the TGI in [2] is 95.9 µM; in assay [3], 63.7 µM; in assay [8], over 100 µM; in assay [4], 46.7 µM; in assay [9], over 100 µM; in assay [10] it was 96.2 µM. The results for the TGI in [5], in assay [6] and in assay [7] were 51.7 µM, 63.8 µM and 37.9 µM, respectively.

In the case of `O=C(O)C1OC(Oc2cc(O)c3c(=O)cc(-c4ccc(O)cc4)oc3c2)C(O)C(O)C1O` (stereo unspecified), the TGI in [2], in [3], in assay [4], in [10], in assay [5] and in assay [6] was over 100 µM in each case.

As for `Cc1cccc(NC(=O)CC#N)c1Cl`, the TGI in [2], in assay [8], in assay [4], in assay [9], in assay [10] and in assay [5] was over 100 µM throughout. In assay [7], this compound showed a TGI of over 100 µM.

For the compound `O=CC1(C2(C=O)c3ccccc3-c3ccccc32)c2ccccc2-c2ccccc21`, the GI50 was 2.37 µM in [2]; 1.56 µM in [3]; 3.77 µM in [8]; 2.11 µM in assay [4]; 2.2 µM in [6]; 0.323 µM in assay [7]. Also, the TGI in [2] is 6.03 µM; in assay [3], 2.85 µM; in [8], 11.6 µM; in assay [4] it was 4.82 µM; in assay [6], 6.08 µM; in assay [7] it was 0.924 µM.

As to `Cc1nc2cc(N)c(Cl)cc2[nH]1`, the TGI in assay [2], in [3], in [8], in [4], in assay [9] and in assay [10] was over 100 µM throughout. Moreover, the TGI in assay [5], in assay [6] and in [7] was over 100 µM each time.

With `Oc1cc2c(cc1O)-c1[nH]ncc1CC2`, the TGI is over 100 µM in [2]; over 100 µM in assay [3]; 47.7 µM in [8]; over 100 µM in assay [4]; over 100 µM in [10]; over 100 µM in assay [5]. The TGI in [6] and in assay [7] was over 100 µM throughout.

In the case of `O=C1c2ccccc2C(=O)c2c1ccc1c2OCO1`, the TGI in [1], in [2], in [4], in [9], in assay [10] and in assay [5] was over 100 µM each time. The TGI in [6] and in [7] was over 100 µM throughout.

As to `O=C(c1ccc2c3c(ccc(C(=O)C(F)(F)F)c13)CC2)C(F)(F)F`, the TGI in [1], in [2], in [3], in assay [4], in assay [10] and in assay [5] was over 100 µM throughout. Besides, the TGI in assay [6] and in [7] was over 100 µM throughout.

Consider `COc1cc(OC)cc(-c2cncn2-c2ccc(-c3nc4cc(OC)c(OC)c(OC)c4s3)cc2)c1`, for which the GI50 in assay [1] was 30.2 µM; in assay [2] it was 22.1 µM; in assay [3], 7.46 µM; in assay [4], 9.56 µM; in [9], 2.9 µM; in [10] it was 5.54 µM. The GI50 in assay [6] is 13.4 µM; in assay [7] it was 9.6 µM. In addition, the TGI in [1], in [2], in assay [3], in [4], in assay [9] and in assay [10] was over 100 µM each time. Besides, the TGI in [6] and in assay [7] was over 100 µM each time.

`CC(C)Oc1ccc(C(=O)N[C@H](CNC(=O)CN(C)C)Cc2ccc(-c3cn4cccc([C@H](C)O)c4n3)cc2)cc1Cl`: the GI50 in assay [1] is 0.0711 µM; in assay [2], 0.0727 µM; in [3] it was 0.036 µM; in assay [4], 0.0566 µM; in [9] it was 0.0399 µM; in assay [10], 0.0381 µM. Also, the GI50 is 0.0301 µM in assay [5], 0.0674 µM in assay [6] and 11.1 µM in assay [7]. Also, the TGI in assay [1] was determined as 13.4 µM; in assay [2], 20.9 µM; in assay [3], 12.6 µM; in assay [4] it was 21.5 µM; in assay [9] it was 19.8 µM; in assay [10], 18 µM. Besides, the TGI was found to be 0.15 µM in assay [5], 26.6 µM in assay [6] and 31 µM in assay [7].

As for `CN(C)/C(N)=N/C(N)=S`, the TGI in assay [1], in [2], in assay [3], in assay [4], in assay [9] and in [10] was over 100 µM throughout. The TGI in assay [5], in assay [6] and in assay [7] was over 100 µM in each case.

Take `O=[N+]([O-])c1ccc(-c2cn(-c3ccc(Cl)cc3)cn2)cc1`: the TGI in [2], in assay [3], in assay [8], in [4], in [9] and in assay [10] was over 100 µM in each case. Further, the TGI in assay [5], in assay [6] and in [7] was over 100 µM in each case.

For `O=c1cccc(C#CC#C/C=C/CO)o1`, the GI50 in assay [1] is 2.38 µM; in assay [2], 2.44 µM; in assay [3] it was 2.88 µM; in assay [4], 1.73 µM; in assay [9], 2.63 µM; in assay [10], 1.64 µM. Besides, the values for the GI50 in [5], in assay [6] and in assay [7] were 4.12 µM, 2.37 µM and 2.82 µM, respectively. The TGI was 7.03 µM in assay [1]; 17.1 µM in [2]; 3.18 µM in assay [4]; over 100 µM in assay [9]; 4.34 µM in assay [10]; 6.62 µM in assay [6].

With `CCC(/C(=N\Nc1c(Cl)cc(Cl)cc1Cl)c1ccccc1)n1ccnc1C` (stereo unspecified), the TGI was 47.2 µM in assay [2]; 29.4 µM in assay [3]; over 100 µM in [8]; 25.3 µM in [4]; 41 µM in assay [9]; 26.8 µM in [10]. Besides, the TGI in assay [5] was determined as 28.6 µM; in assay [6], 37.2 µM; in assay [7] it was 28.8 µM.

Take `CC1=C(c2cc(C(=O)Nc3nccs3)nc(NC#N)n2)Sc2ccccc2N1`: the TGI in [2], in assay [3], in [8], in [4], in [9] and in assay [10] was over 100 µM throughout. For the same compound, the TGI in assay [5], in assay [6] and in assay [7] was over 100 µM throughout.

In the case of `CC([O-])C(=O)[O-].NCC1CCC1CN.[Pt+4]` (stereo unspecified), the GI50 in [2] is over 10 µM; in assay [3] it was over 10 µM; in [8] it was 4.39 µM; in [4] it was over 10 µM; in [9], over 10 µM; in [10], over 10 µM. The GI50 in assay [5], in assay [6] and in [7] was over 10 µM each time. For the same compound, the TGI in assay [2], in [3], in assay [8], in assay [4], in assay [9] and in assay [10] was over 10 µM in each case. Also, the TGI in assay [5], in assay [6] and in assay [7] was over 10 µM in each case.

For `COC(=O)C1C2CCCN2OC1(C)CO` (stereo unspecified), the TGI in [2], in [3], in assay [8], in assay [4], in assay [9] and in [10] was over 100 µM each time. The TGI in [5], in assay [6] and in [7] was over 100 µM in each case.

As to `CCN(CC(COc1ccc2c(c1)[n+]([O-])nc(N)[n+]2[O-])OC(C)=O)C(C)=O` (stereo unspecified), the TGI in assay [2], in [8], in [4], in assay [9], in [10] and in [5] was over 100 µM each time. Further, the TGI in [6] and in [7] was over 100 µM each time.

With `CC(O[Si](C)(C)C)C1C=CC(C)n2c(=O)n(-c3ccccc3)c(=O)n21` (stereo unspecified), the TGI in [1], in assay [4], in [9], in assay [10], in assay [5] and in assay [6] was over 100 µM each time. In addition, in assay [7], the TGI is over 100 µM.
